{"source": "patent US20260256741A1", "about": "“ANTICANCER MALEIMIDE DERIVATIVES FOR USE WITH IMMUNE CHECKPOINT BLOCKADE” (BROWN UNIVERSITY, priority 2022, published 2026)", "assay_type_in_all_cases": "cell-based, human", "key": {"HT-29 GFP+ cells": {"tested_on": "HT-29 GFP+ cells", "assay": "Single-color GFP+ immune cell co-culture, HT-29", "settings": "48 hours", "experimental": "50,000 HT-29 or HCT 116 cells were seeded in a 12-well tissue culture plate and allowed to adhere overnight. They were then transduced with lentivirus containing the plasmid pLenti_CMV_GFP_Hygro [pLenti CMV GFP Hygro (656-4) was a gift from Eric Campeau & Paul Kaufman (Addgene viral prep #17446-LV; RRID: Addgene_17446)] at a multiplicity of infection of 10 with 8 μg/mL polybrene (hexadimethrine bromide [Cat #107689, Sigma Aldrich, St. Louis, MO, USA) for 24 hours before washing with PBS and replacing with fresh medium (49). The cells were then sorted for GFP-positivity using a BD FACSAria™ III Cell Sorter (RRID: SCR_016695).\n5000 HT-29 GFP+ or HCT 116 GFP+ cells were plated per well in a clear-bottom, black-walled 96-well tissue culture plate and were allowed to adhere overnight. Cells were subsequently treated with DMSO, 5 μM elraglusib, and/or 5000 TALL-104 or NK-92 cells (for an effector-to-tumor ratio of 1:1) for 48 hours. Nine images were taken per well at 10× magnification using a Molecular Devices ImageXpress® Confocal HT.ai High-Content Imaging System and quantified for the number of GFP+ objects using the MetaXpress (RRID: SCR_016654) software (Molecular Devices, San Jose, CA, USA). 40× Images were also taken at 24 hours for representative images of cellular morphology changes. Statistical analysis was done using GraphPad Prism 9 (RRID: SCR_002798)."}, "NK-92 cells": {"tested_on": "NK-92 cells", "assay": "Cytokine profiling of cell culture supernatant (Luminex 200), NK-92", "experimental": "Cells were plated at 3.5×10^4 cells in a 48-well plate (Thermo Fisher Scientific, Waltham, MA, USA) in complete medium and incubated at 37° C. with 5% CO2. At 24 hours after plating, almost all the tumor cells were adherent to the bottom of the flask and the complete medium was replaced with the drug-containing medium. […] On the day of analysis, samples were thawed and centrifuged to remove cellular debris.\n(§1) Human cell line culture supernatants were analyzed using an R&D systems Human Premixed Multi-Analyte Kit (R&D Systems, Inc., Minneapolis, MN, USA) and a Luminex 200 (RRID: SCR_018025) Instrument (LX200-XPON-RUO, Luminex Corporation, Austin, TX, USA) according to the manufacturer's instructions. Sample levels of TNF-α, 4-1BB/TNFRSF9/CD137, IL-8/CXCL8, Ferritin, IFN-β, IL-10, CCL2/JE/MCP-1, VEGF, CXCL13/BLC/BCA-1, IFN-γ, CCL20/MIP-3 α, CCL3/MIP-1 α, CCL22/MDC, CCL4/MIP-1 β, Fas Ligand/TNFSF6, IL-17/IL-17A, IL-2, BAFF/BLyS/TNFSF13B, GM-CSF, CXCL5/ENA-78, TRANCE/TNFSF11/RANK L, CXCL9/MIG, G-CSF, IFN-γ R1/CD119, VEGFR3/Flt-4, C-Reactive Protein/CRP, CXCL11/I-TAC, IL-21, CXCL14/BRAK, IL-6, Fas/TNFRSF6/CD95, TRAIL R3/TNFRSF10C, IL-4, CCL5/RANTES, PD-L1/B7-H1, CCL7/MCP-3/MARC, Chitinase 3-like 1, CXCL10/IP-10/CRG-2, IL-1 β/IL-1F2, IL-7, Prolactin, CCL8/MCP-2, TRAIL R2/TNFRSF10B, M-CSF, IL-15, Granzyme B, IFN-α, TREM-1, IL-12/IL-23 p40, TRAIL/TNFSF10, CCL11/Eotaxin, and IL-18/IL-1F4. Quantitative analysis with 6 standards and a minimum of 50 counts per bead region was used with the Luminex to generate analyte values reported as picograms/milliliter (pg/mL). Sample concentrations less than the lower limit of detection for each particular analyte were recoded as the lower limit value divided by ten. Sample concentrations above the upper limit of detection for a particular analyte were recoded as the upper limit of detection."}, "[1]": {"tested_on": "tumor cells (HCT-116, HT-29)", "assay": "Cytokine profiling of tumor cell culture supernatant (Luminex 200)", "settings": "48 hours", "experimental": "Cells were plated at 3.5×10^4 cells in a 48-well plate (Thermo Fisher Scientific, Waltham, MA, USA) in complete medium and incubated at 37° C. with 5% CO2. At 24 hours after plating, almost all the tumor cells were adherent to the bottom of the flask and the complete medium was replaced with the drug-containing medium. Subsequently, the culture supernatants were collected after 48 hours of incubation and were frozen at −80° C. until the measurement of cytokines was performed. On the day of analysis, samples were thawed and centrifuged to remove cellular debris.\nas §1"}, "HCT-116 cells": {"tested_on": "HCT-116 cells", "assay": "Microarray gene expression analysis, HCT-116", "experimental": "A total of 0.5×10^6 tumor cells (HCT-116, HT-29, KM12C) were plated in a 6-well plate and allowed to adhere overnight before 24-hour treatment as indicated. 1×10^6 immune cells (NK92, TALL-104) were plated and treated with elraglusib as indicated for 24 hours. RNA was isolated from cell pellets in batches of 6 using an RNeasy Plus Mini Kit (Cat #74134, Qiagen, Hilden, Germany). Acceptable RNA concentration and quality were verified with Nanodrop and Bioanalyzer measurements. GeneChip™ Human Transcriptome Array 2.0 assays were conducted according to manufacturer instructions in two batches using randomized samples to limit batch effects (Cat #902162, Applied Biosystems, Waltham, MA, USA). Applied Biosystems Transcriptomic Analysis Console (TAC) software (RRID: SCR_016519) was used to calculate fold changes in gene expression relative to the untreated control cells. Values were considered statistically significant for p values <0.05."}}}
{"smiles": "Cn1cc(C2=C(c3coc4ccc(F)cc34)C(=O)NC2=O)c2cc3c(cc21)OCO3", "note": "[elraglusib, 3-(5-fluorobenzofuran-3-yl)-4-(5-methyl-5H-[1,3]dioxolo[4,5-f]indol-7-yl)-1H-pyrrole-2,5-dione]", "values": [{"measurement": "tumor cell death", "setting": "HT-29 GFP+ cells; 5 μM elraglusib and NK-92 vs immune cell only and DMSO only", "value": "increased tumor cell death"}, {"measurement": "tumor cell death", "setting": "HT-29 GFP+ cells; 5 μM elraglusib and TALL-104 vs drug-only or T cell-only", "value": "increased tumor cell death"}, {"measurement": "IFN-γ concentration in supernatant", "setting": "NK-92 cells; 1 μM, 48 hours", "value": "increases"}, {"measurement": "TRAIL concentration in supernatant", "setting": "NK-92 cells; 1 μM, 48 hours", "value": "increases"}, {"measurement": "secreted granzyme B concentration", "setting": "NK-92 cells; 1 μM, 48 hours", "value": "decreases"}, {"measurement": "IFN-γ in cell culture supernatant", "setting": "NK-92 cells; 24 hours treatment vs DMSO", "value": "significant increase in IFN-γ"}, {"measurement": "CCL5/RANTES secretion", "setting": "[1]; 1 μM or 5 μM", "value": "downregulated post-treatment"}, {"measurement": "DcR3 secretion", "setting": "[1]; 1 μM or 5 μM", "value": "downregulated post-treatment"}, {"measurement": "Fas secretion", "setting": "[1]; 1 μM or 5 μM", "value": "downregulated post-treatment"}, {"measurement": "soluble PD-L1 (sPD-L1) secretion", "setting": "[1]; 1 μM or 5 μM", "value": "downregulated post-treatment"}, {"measurement": "GDF-15 secretion", "setting": "[1]; both cell lines, 1 μM and 5 μM", "value": "decreased secretion"}, {"measurement": "GM-CSF secretion", "setting": "[1]; both cell lines, 1 μM and 5 μM", "value": "decreased secretion"}, {"measurement": "VEGF secretion", "setting": "[1]; both cell lines, 1 μM and 5 μM", "value": "decreased secretion"}, {"measurement": "CMTM4 gene expression fold change", "setting": "HCT-116 cells; 24 hours vs DMSO", "value": "−1.84", "unit": "FC"}, {"measurement": "NEK2 gene expression fold change", "setting": "HCT-116 cells; 24 hours vs DMSO", "value": "−2.21", "unit": "FC"}, {"measurement": "PPP1R1C gene expression fold change", "setting": "HCT-116 cells; 24 hours vs DMSO", "value": 1.78, "unit": "FC"}, {"measurement": "downregulated genes in VEGFA-VEGFR2 signaling pathway", "setting": "HCT-116 cells; 24 hours vs DMSO", "value": 29}, {"measurement": "differentially expressed genes post-treatment", "setting": "HCT-116 cells; IC-50 concentration (1 μM), 24 hours, FC cutoff >1.5, <−1.5, p<0.05", "value": 340}]}
